Data on three compounds can be found in US8673554B2, “Multiplex cell signalling assays” (Ge Healthcare UK Limited, priority 2008, dated 2014).

Common to all, as to assay type: cell-based, human
Experiment [1] has as its system U2OS cells. In words: Calcium transient (Fluo-4 fluorescence) in stimulated U2OS cells, IN Cell Analyzer 1000. The following applies: for cytosolic intracellular calcium (emitted fluorescence of Fluo-4): test agent 1.56-100 μM, over eight minutes, peak and decline, dose dependent, FIG. 1 / FIG. 4. A general note: A change in cytosolic calcium serves as a functional read-out for many receptors and channels.
Description: i) U2OS cells were seeded into 96-well Greiner cluster plates at 6000 cell/well in 100 μl of complete McKoys media and incubated overnight at 37° C., 5% CO2.
ii) Loading buffer was prepared with 42.8 ml of calcium flux buffer with 6.65 ml of 7.5% albumin This buffer was stored at 37° C.
iii) 120 ml of maintenance buffer was prepared with 118.16 ml calcium flux buffer and 1840 μl of 7.5% albumin

Experiment [2] has as its system U2OS cells. Kind of experiment: Cell-associated IL-6 immunocytochemistry (Cy5 second antibody) combined with intracellular calcium, IN Cell Analyzer 1000. As to conditions: 4 hours contact; Example 4, FIG. 8. The protocol:
4. Combination Assay of Intracellular Calcium and Human Interleukin-6 from Calcium Ionophore A23187-Stimulated U2OS Cells on IN Cell Analyzer 1000 4.1 Materials Anti-IL-6 (R&D Systems) Goat anti-human IgG CY™ 5 linked (GE Healthcare) Calcium ionophore A23187 (Sigma) U2OS cells (European Collection of Cell Cultures, Porton Down, UK) 4.2 Method and Results i) U2OS cells were seeded into 96-well tissue culture plates at 6000 cell/well in 100 μl of complete McKoys media and incubated overnight at 37° C., 5% CO2. ii) Cells were stimulated with A23187 for 8 minutes before measurement of a calcium transient on an IN Cell Analyzer 1000 as described in Example 1. […] The results from this assay were measured on an IN Cell Analyzer 1000 using a 10× objective, 505 light pass dichroic 475/535 filter set 200 ms exposure. […] Cells were contacted with the test agent (calcium ionophore A23187) for 4 hours and cell-associated IL-6 measured post cell-stimulation with test agent. After stimulation with the ionophore, the supernatant was decanted and the cells were washed thoroughly X3 with PBS. […] The results were analysed using an object intensity algorithm (IN Cell Investigator software). […]

Experiment [3] has as its system U2OS cells. Kind of experiment: Cell-associated IL-6, chemiluminescent anti-IL-6-HRP assay on LEADSEEKER imaging system, same cells after the calcium transient. The following applies: after stimulation (A23187 4 hours, histamine overnight); FIG. 3 / FIG. 5.
Description: Cells were contacted with the test agent (calcium ionophore A23187) for 4 hours and cell-associated IL-6 measured post cell-stimulation with the test agent. After stimulation, the cell supernatant was decanted, the cells were washed thoroughly X3 with PBS, before incubating with the anti-IL-6 antibody. The cells were washed ×3 with PBS before addition of the chemiluminescent substrate. Results from the calcium transient were obtained prior to the IL-6 results using the same population of cells. The results (FIG. 3) were obtained using a […] ™ Multimodality Imaging System, exposing for 20 seconds, using the chemiluminescent substrate and the luminescent signal reporter (anti-IL-6 labelled with the enzyme horseradish peroxidise).
The results were obtained on the […] ™ Multimodality Imaging System, exposing for 20 seconds, using the chemiluminescent substrate and the luminescent signal reporter (anti-IL-6 labelled with the enzyme horseradish peroxidise).
iv) 5 mg of calcium ionophore A23187 was dissolved in 1 ml of DMSO. The ionophore was subsequently diluted in complete maintenance buffer to give final concentration of ionophore over the range of 1.56-100 μM. Fluo-4 dye was prepared by adding 456 μl DMSO to a 50 μg vial, and the vial was mixed well to provide a Fluo-4 stock concentration of 100 μM. […]
Experiment [4] has as its system EGFP-NFATc1 transfected U2OS cells. In words: EGFP-NFATc1 translocation assay, Nuclear Trafficking Analysis module. As to conditions: 60 minutes incubation; FIG. 11 / FIG. 14. The text has this: The present patent specification describes a method for monitoring the NFATC1 signalling pathway with a cell-secreted, cell-associated analyte. The assay method is based on the intracellular translocation of an EGFP-NFATc1 fusion protein in stably transfected mammalian cells. NFATc1 is a transcription factor involved in T-cell signalling and tissue development. […] Following activation with agonists these translocate to the nucleus.
The NFAT assay is optimised for image acquisition and analysis on the IN Cell Analysis System (GE Healthcare) using the Nuclear Trafficking-Analysis Module, although the assay can be imaged on other systems. The Nuclear Trafficking-Analysis Module measures the degree of EGFP-NFAT translocation from the cytoplasm to the nucleus on the addition of agonists.
• 1. Incubate the microplate at 37° C., 5% CO2 and 95% humidity. • 2. The day before commencing the assay, seed at 1×10^4 cells per well in 200 μl of growth medium. Incubate for 24 hours at 37° C. If one of the wells on the cell plate is used for flat field correction, it should not contain cells. • 3. […]
• 1. […] Cells were contacted with test agent for a further 3-18 hours and cell associated TNF, IL-8 or PDGF was measured post stimulation with test agent. • 8. […] The results were analysed using an object intensity algorithm (IN Cell Investigator software). […]

In experiment [5] the test system is EGFP-NFAT1c transfected U2OS cells. In words: Cell-associated PDGF immunofluorescence combined with EGFP-NFAT1c translocation. As to conditions: further 3-18 hours contact; FIG. 12. As to the method:
• 1. The day before commencing the assay, seed EGFP-NFATc1 transfected U2OS cells at 1×10^4 cellsper well in 200 μl of growth medium. • 2. On the day of the assay, prepare the test agent (ionomycin, ionomycin+PMA, A23187). These samples are typically prepared in assay medium. • 3. Decant the growth medium from the cell plate, removing all excess liquid and add 200 μl. Using the cell culture medium, wash the cells. Decant the wash. • 4. Add […] assay medium containing test agent. Incubate for 60 minutes. • 5. The total volume is 200 μl. After the suitable incubation period, image the plate on the IN Cell Analyzer 1000 using appropriate filters and dichroic mirror. • 6. Carry out the data analysis using the Nuclear Trafficking Analysis module. • 7. Cells were contacted with test agent for a further 3-18 hours and cell associated TNF, IL-8 or PDGF was measured post stimulation with test agent. • 8. After stimulation with the test agent, the supernatant was decanted and the cells were washed ×3 with PBS. […] The results were analysed using an object intensity algorithm (IN Cell Investigator software). […]

The structures appear in SMILES notation.

Consider `CNc1ccc2oc(C[C@H]3O[C@@]4(CC[C@H]3C)O[C@H]([C@H](C)C(=O)c3ccc[nH]3)[C@H](C)C[C@H]4C)nc2c1C(=O)O` [calcium ionophore A23187, Calcium ionophore A23187], for which the “intracellular calcium compared with the unstimulated (zero ionophore) control” value in the experiment with U2OS cells [1] (1.56 μM ionophore, 8 minutes stimulation, FIG. 7) is “increase in intracellular calcium”. In addition, the “intracellular calcium with increasing concentration of the ionophore” value in the experiment with U2OS cells [1] (Example 4, FIG. 8) is “dose-dependent rise”. Further, the “cytosolic intracellular calcium (emitted fluorescence of Fluo-4)” value in the experiment with U2OS cells [1] is listed as “increase in cytosolic intracellular calcium”. For the same compound, the “cell-associated IL-6 with increasing concentration of the ionophore” value in the experiment on U2OS cells [2] is recorded as “dose-dependent rise”. In addition, the “cell-associated IL-6” value in the experiment on U2OS cells [3] is “increase in cell-associated IL-6”. The EGFP-NFAT1c translocation entry in experiment [4] is listed as “EGFP-NFAT1c cell response”.

With `NCCc1c[nH]cn1` [histamine, Histamine], in the experiment on U2OS cells [1], the “cytosolic intracellular calcium (emitted fluorescence of Fluo-4)” value is “increase in cytosolic intracellular calcium”. Also, the “cell-associated IL-6” value in the experiment with U2OS cells [3] was “increase in cell-associated IL-6”.

As to `C[C@H](CCC(=O)O)C[C@H](C)C[C@H](C)C(=O)/C=C(\O)[C@H](C)C[C@H](C)C/C=C/[C@@H](C)[C@@H](O)[C@@H](C)[C@@H](O)C[C@@H]1CC[C@@](C)([C@H]2CC[C@@](C)([C@@H](C)O)O2)O1` [ionomycin, Ionomycin], in experiment [5], the “cell-associated PDGF release” value is “PDGF release”. The EGFP-NFAT1c translocation result in experiment [4] was “EGFP-NFAT1c cell response”.
